Like-named read-outs stand apart in the source and are kept apart here.
Key:
E. coli DNA gyrase = E. coli DNA gyrase (Escherichia coli, UniProt P0AES4+P0AES6); test: DNA gyrase supercoiling assay; format: biochemical; conditions: Table 1
human topoisomerase I = target: T1, human topoisomerase I (Homo sapiens, UniProt P11387); test: Topoisomerase I relaxation assay (human); format: biochemical
T1 sequence (P11387 1-765): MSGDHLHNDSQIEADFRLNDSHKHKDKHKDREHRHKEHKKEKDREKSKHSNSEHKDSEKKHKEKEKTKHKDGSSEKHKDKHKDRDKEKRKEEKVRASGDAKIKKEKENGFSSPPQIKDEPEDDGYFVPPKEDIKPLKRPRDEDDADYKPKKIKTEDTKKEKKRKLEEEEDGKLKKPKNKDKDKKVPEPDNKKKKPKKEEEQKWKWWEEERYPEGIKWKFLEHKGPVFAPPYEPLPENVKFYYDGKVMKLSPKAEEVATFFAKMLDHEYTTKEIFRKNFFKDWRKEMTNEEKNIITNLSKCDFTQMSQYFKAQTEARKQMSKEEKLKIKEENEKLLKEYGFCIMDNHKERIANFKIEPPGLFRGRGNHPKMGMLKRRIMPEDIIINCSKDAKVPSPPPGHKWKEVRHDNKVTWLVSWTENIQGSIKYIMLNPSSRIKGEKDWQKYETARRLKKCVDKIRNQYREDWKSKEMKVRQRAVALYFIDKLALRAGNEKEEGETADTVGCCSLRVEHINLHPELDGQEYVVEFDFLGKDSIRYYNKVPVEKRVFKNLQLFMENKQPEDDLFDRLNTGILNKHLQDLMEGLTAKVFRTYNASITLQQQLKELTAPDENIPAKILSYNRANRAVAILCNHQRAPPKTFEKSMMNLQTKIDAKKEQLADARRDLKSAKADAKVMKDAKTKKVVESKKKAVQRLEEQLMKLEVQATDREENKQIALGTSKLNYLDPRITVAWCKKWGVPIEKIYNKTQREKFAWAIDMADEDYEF

calf topoisomerase I = target: T2, calf topoisomerase I (Bos taurus, UniProt F1MN93); test: Topoisomerase I relaxation assay (calf); format: biochemical; conditions: Table 1, calf enzyme, read-out: Topo I (c) IC50 (converted)
T2 sequence (F1MN93 1-767): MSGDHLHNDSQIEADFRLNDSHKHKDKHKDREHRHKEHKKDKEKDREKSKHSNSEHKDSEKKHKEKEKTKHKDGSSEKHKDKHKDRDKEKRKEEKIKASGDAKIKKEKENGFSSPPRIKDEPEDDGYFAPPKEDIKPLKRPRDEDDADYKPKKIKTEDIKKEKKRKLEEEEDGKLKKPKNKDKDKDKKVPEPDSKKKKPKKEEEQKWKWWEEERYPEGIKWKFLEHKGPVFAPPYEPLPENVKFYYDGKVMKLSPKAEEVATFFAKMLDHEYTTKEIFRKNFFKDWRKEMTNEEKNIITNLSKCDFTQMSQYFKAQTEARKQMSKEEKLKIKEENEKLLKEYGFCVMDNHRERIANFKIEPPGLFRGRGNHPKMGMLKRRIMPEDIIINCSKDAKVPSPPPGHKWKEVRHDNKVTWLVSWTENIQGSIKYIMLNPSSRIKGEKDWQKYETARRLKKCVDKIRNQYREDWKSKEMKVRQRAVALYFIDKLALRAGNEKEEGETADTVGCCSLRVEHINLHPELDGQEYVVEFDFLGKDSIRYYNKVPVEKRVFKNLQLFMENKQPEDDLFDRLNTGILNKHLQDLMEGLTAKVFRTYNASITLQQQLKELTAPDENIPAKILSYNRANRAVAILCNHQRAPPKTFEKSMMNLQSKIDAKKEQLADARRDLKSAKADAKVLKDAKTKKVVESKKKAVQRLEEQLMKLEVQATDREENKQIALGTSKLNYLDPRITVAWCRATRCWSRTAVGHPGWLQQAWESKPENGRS

human topoisomerase II [1] = target: T3, human topoisomerase II (Homo sapiens, UniProt P11388); test: Topoisomerase II decatenation assay; format: biochemical
human topoisomerase II [2] = target: T3, human topoisomerase II; test: DNA cleavage assay (topoisomerase II poisoning); format: biochemical; conditions: various concentrations; FIG. 1
From the text: (§1) Topoisomerase poisoning results in the accumulation of covalent topoisomerase-DNA complexes, which can be detected as the generation of nicked and/or linear DNA in DNA cleavage assays. Poisoning of human topoisomerase II generate double-strand breaks that lead to the development of therapy-related acute myeloid leukemia.

[3] = system: mammalian topoisomerase I; test: Topoisomerase I poisoning (DNA cleavage); format: biochemical
From the text: as §1

60 cancer cell lines = test: NCI 60 DTP Human Tumor Cell Line Screen; format: cell-based; conditions: for GI50: Homo sapiens, against the 60 cancer cell lines; for comparison of GI50 and LD50 values with etoposide (NCI's COMPARE program): majority of the 60 cancer cell lines; for mean growth: single dose (10 μM) screening
From the text: Both 217 and 227 were submitted to the NCI for the 60 DTP Human Tumor Cell Line Screen.

[4] = In vivo toxicity study (maximum tolerated dose); conditions: daily intraperitoneal, up to 30 mg/kg for 3 weeks
Description: (§2) In vivo toxicity studies were performed to establish the maximum tolerated dose of 217 and 227 in mice. […] A proof of concept efficacy study was also conducted in mice with 217 and 227. Based on the in vitro susceptibility to 217 and 227, and the availability of the established xenograft models, a colon cancer (HT-29) xenograft model was used.

[5] = system: colon cancer (HT-29) xenograft; test: Colon cancer (HT-29) xenograft efficacy study; format: in vivo, mice; conditions: 3-week treatment, FIG. 2
Description: as §2

Aqueous solubility = format: physicochemical
[6] = system: colon (HT-29) and leukemia (K-562) cell lines; test: MTT anti-proliferative assay; format: cell-based; conditions: HT-29 and K-562
Description: An MTT assay was performed with 277 and with the following compounds:
[drawing 68] against colon (HT-29) and leukemia (K-562) cell lines to determine their in vitro anti-proliferative activities.

[7] = Table 1, human enzyme, relaxation assay, read-out: Topo I (h) IC50
[8] = read-out: IC50 human topoisomerase I in the relaxation assay
[9] = Table 1, decatenation assay, read-out: Topo II IC50
[10] = Table 2, decatenation assay, read-out: Topo II IC50
[11] = read-out: IC50 human topoisomerase II in the decatenation assay
[12] = Table 2, relaxation assay, read-out: Topo I IC50

T3 sequence (P11388 whole entry): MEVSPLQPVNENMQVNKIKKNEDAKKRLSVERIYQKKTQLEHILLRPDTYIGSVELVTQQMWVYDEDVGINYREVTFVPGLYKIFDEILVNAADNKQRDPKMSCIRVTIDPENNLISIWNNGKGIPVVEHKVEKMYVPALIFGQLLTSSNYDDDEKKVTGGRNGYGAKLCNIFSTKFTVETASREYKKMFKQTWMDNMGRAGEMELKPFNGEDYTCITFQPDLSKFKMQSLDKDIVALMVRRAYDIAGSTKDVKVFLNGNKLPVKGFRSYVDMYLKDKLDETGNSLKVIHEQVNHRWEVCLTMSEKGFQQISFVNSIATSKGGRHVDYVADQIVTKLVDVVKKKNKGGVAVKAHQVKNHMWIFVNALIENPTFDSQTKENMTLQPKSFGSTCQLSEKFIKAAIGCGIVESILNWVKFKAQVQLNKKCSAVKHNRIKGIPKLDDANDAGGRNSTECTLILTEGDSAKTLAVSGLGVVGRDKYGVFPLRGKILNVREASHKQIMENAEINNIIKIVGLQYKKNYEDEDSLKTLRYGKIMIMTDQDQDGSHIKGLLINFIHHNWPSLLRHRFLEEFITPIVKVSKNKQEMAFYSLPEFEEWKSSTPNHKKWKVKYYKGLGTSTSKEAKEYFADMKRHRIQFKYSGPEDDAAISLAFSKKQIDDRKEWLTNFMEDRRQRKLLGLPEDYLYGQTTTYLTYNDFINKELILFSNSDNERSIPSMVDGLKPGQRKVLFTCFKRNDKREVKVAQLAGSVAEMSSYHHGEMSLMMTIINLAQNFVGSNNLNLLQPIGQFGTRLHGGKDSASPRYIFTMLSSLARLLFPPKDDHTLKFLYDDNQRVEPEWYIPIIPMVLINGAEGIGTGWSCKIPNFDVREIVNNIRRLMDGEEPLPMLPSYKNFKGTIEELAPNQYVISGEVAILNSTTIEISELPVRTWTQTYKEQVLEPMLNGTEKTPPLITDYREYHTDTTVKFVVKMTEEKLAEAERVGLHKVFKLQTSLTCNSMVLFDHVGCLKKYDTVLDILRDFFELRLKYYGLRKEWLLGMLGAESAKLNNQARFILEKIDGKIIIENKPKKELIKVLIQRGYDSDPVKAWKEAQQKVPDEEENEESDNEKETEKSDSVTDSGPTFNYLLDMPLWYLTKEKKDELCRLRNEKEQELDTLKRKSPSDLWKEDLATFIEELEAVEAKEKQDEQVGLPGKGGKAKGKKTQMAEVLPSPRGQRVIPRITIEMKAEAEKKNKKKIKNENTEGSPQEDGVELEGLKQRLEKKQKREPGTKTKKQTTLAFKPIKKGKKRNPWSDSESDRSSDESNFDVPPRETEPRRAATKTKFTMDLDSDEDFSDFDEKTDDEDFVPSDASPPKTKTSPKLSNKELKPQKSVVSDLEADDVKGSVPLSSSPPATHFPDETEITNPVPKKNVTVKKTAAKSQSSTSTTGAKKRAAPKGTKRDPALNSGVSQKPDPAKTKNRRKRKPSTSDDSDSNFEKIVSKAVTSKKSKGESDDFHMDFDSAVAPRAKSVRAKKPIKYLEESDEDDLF
Sequence of E. coli DNA gyrase (P0AES4 whole entry, one chain of several): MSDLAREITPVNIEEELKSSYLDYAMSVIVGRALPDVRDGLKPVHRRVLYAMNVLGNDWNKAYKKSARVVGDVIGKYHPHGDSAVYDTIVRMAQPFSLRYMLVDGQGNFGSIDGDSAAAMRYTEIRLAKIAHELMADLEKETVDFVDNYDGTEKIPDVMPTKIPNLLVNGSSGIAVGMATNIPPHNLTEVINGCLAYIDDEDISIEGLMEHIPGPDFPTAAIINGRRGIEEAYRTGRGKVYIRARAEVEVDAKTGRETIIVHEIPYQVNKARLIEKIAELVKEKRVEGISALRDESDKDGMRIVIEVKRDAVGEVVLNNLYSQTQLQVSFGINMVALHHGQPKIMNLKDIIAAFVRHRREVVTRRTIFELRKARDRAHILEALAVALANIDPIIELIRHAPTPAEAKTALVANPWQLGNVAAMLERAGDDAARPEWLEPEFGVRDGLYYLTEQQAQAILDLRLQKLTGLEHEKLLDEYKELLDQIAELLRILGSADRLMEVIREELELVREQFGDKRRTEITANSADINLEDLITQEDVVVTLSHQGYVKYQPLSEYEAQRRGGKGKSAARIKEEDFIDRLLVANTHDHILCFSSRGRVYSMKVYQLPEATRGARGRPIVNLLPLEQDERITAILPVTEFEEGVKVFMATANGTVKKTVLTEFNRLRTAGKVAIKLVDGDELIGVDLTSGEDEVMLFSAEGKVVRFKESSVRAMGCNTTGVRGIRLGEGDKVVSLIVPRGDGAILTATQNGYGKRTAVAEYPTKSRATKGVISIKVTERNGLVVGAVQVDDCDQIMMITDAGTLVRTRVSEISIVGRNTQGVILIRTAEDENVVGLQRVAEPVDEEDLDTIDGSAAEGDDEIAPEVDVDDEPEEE

COc1c(N2CC[C@@H](CN)C2)c(F)cc2c(=O)c(C(=O)O)cn(Cc3ccc(-c4ccccc4)cc3)c12 [Compound 217, (S)-1-([1,1′-biphenyl]-4-ylmethyl)-7-(3-(aminomethyl)pyrrolidin-1-yl)-6-fluoro-8-methoxy-4-oxo-1,4-dihydroquinoline-3-carboxylic acid]
IC50 (E. coli DNA gyrase): 1370 ± 10.1 µM
IC50 (human topoisomerase I; [7]): 26 ± 0.5 µM
IC50 (human topoisomerase I; [8]): 26.5 µM
IC50 (calf topoisomerase I): 32.2 µM
IC50 (human topoisomerase II [1]; [9]): 128 ± 4.7 µM
IC50 (human topoisomerase II [1]; [10]): 128 ± 4.7 µM
IC50 (human topoisomerase II [1]; [11]): 128 µM
increase in the amounts of linear DNA (human topoisomerase II [2]): did not detect any significant increase (two-fold or less)
poisoning of mammalian topoisomerase I [3]: did not poison mammalian topoisomerase I
GI50 (60 cancer cell lines): 1.9 µM
comparison of GI50 and LD50 values with etoposide (NCI's COMPARE program) (60 cancer cell lines): significantly more effective than etoposide
mean growth (60 cancer cell lines): 40.3%
effect on animal weight gain [4]: did not have any significant effect on animal weight gain
tolerability [4]: well-tolerated
inhibition of colon cancer proliferation in vivo [5]: inhibited the proliferation of colon cancer in vivo as well as fluorouracil (5-FU)
aqueous solubility (Aqueous solubility): limited aqueous solubility

COc1c(N2C[C@@H]3CCCN[C@@H]3C2)c(F)cc2c(=O)c(C(=O)O)cn(Cc3ccc(-c4ccccc4)cc3)c12 [Compound 205]
IC50 (human topoisomerase I; [12]): 44.4 ± 0.8 µM

COc1c(N2C[C@@H]3CCCN[C@@H]3C2)c(F)cc2c(=O)c(C(=O)O)cn(Cc3ccc4ccccc4c3)c12 [Compound 213]
IC50 (human topoisomerase I; [12]): 127.9 ± 0.8 µM

NC[C@@H]1CCN(c2cc3c(cc2F)c(=O)c(C(=O)O)cn3Cc2ccc(-c3ccccc3)cc2)C1 [Compound 065]
anti-proliferative activity, fold higher than that of 217 [6]: 2-5 fold

COc1c(N2CCNCC2)c(F)cc2c(=O)c(C(=O)O)cn(Cc3ccc(-c4ccccc4)cc3)c12 [Compound 207]
IC50 (human topoisomerase I; [12]): 54.2 ± 3.2 µM

COc1c(N2CCNCC2)c(F)cc2c(=O)c(C(=O)O)cn(Cc3ccc4ccccc4c3)c12 [Compound 215]
IC50 (human topoisomerase I; [12]): 132 ± 3.5 µM

NC[C@@H]1CCN(c2cc3c(cc2F)c(=O)n(N)c(=O)n3Cc2ccc3ccccc3c2)C1 [Compound 213a]
IC50 (human topoisomerase I; [12]): 59 ± 2.9 µM

NC[C@@H]1CCN(c2cc3c(cc2F)c(=O)n(N)c(=O)n3Cc2ccc(-c3ccccc3)cc2)C1 [Compound 215a]
IC50 (human topoisomerase I; [12]): 25.9 ± 5.4 µM

COc1c(N2CC[C@@H](CN)C2)c(F)cc2c(=O)c(C(=O)O)cn(Cc3ccc4ccccc4c3)c12 [Compound 227, (S)-7-(3-(aminomethyl)pyrrolidin-1-yl)-6-fluoro-8-methoxy-1-(naphthalen-2-ylmethyl)-4-oxo-1,4-dihydroquinoline-3-carboxylic acid]
IC50 (E. coli DNA gyrase): > 200 µM
IC50 (human topoisomerase I; [7]): 43.7 ± 0.6 µM
IC50 (human topoisomerase I; [8]): 43.1 µM
IC50 (calf topoisomerase I): 66.6 µM
IC50 (human topoisomerase II [1]; [9]): 165 ± 20.2 µM
IC50 (human topoisomerase II [1]; [10]): 165 ± 20.2 µM
IC50 (human topoisomerase II [1]; [11]): 165 µM
increase in the amounts of linear DNA (human topoisomerase II [2]): did not detect any significant increase (two-fold or less)
poisoning of mammalian topoisomerase I [3]: did not poison mammalian topoisomerase I
GI50 (60 cancer cell lines): 3.1 µM
comparison of GI50 and LD50 values with etoposide (NCI's COMPARE program) (60 cancer cell lines): significantly more effective than etoposide
mean growth (60 cancer cell lines): 44.1%
effect on animal weight gain [4]: did not have any significant effect on animal weight gain
tolerability [4]: well-tolerated
inhibition of colon cancer proliferation in vivo [5]: exhibited activity but was not as effective as 217
aqueous solubility (Aqueous solubility): limited aqueous solubility
